Measurements reported in patent US10538535B2, “Antitumoral compounds” (priority 2017, dated 2020).
Like-named read-outs stand apart in the source and are kept apart here.

Assays:
A2780 tumors = conditions: A2780 xenograft
Protocol: (§1) Female athymic nu/nu mice (Harlan Laboratories Models, S. L. Barcelona, Spain or Envigo, Spain) were utilized for all experiments. Animal were housed in individually ventilated cages Sealsafe® Plus, Techniplast S.P.A.), up to ten per cage on a 12-hour light-dark cycle at 21-23° C. and 40-60% humidity. […] Animals were acclimated for at least 5 days prior to tumor implantation with a tumor cell suspension.
Culture cells were passaged every 3 to 5 days upon reaching confluence. Each animal was subcutaneously implanted (on the right flank using 26 G needle and a 1 cc syringe) at 4-6 weeks of age with 10×10^6 A2780 cells suspended in 0.05 mL of a solution consisting of 50% Matrigel® (Corning Incorporated Life Sciences) and 50% medium without serum or antibiotics.
(§2) Treatment tolerability was assessed by monitoring body weight evolution, clinical signs of systemic toxicity, as well as evidences of local damage in the injection site.
In xenograft studies with other cell lines: • Tumor volume was calculated using the equation (a·b^2)/2, where a: length (longest diameter) and b: width (shortest diameter) were measured in mm by using digital caliper (Fowler Sylvac, S235PAT).
(§3) Treatments producing >20% lethality and/or 20% net body weight loss were considered toxic.

B16 melanoma = conditions: cited from earlier work
HT1080 tumors = assay: In vivo xenograft, human fibrosarcoma HT1080; conditions: iv weekly, 32 and ET-736 0.5 mg/Kg
Protocol: as §1
HT1080 cells were maintained in vitro at 37° C. with 5% CO2 in Minimum Essential Medium Eagle (MEME) (Sigma-Aldrich, Co). Each animal was orthotopically implanted into gastroecnemius muscle by an intramuscular injection using a 26 G needle and a 1 cc syringe at 4-6 weeks of age, with 10×10^6 HT1080 cells, suspended in serum free medium, without antibiotics.
as §2
In xenograft studies with HT1080 cell line: • Total diameter (tumor+leg) measurements were determined by using digital caliper (Fowler Sylvac, S235PAT).
as §3

P388 lymphoma = conditions: cited from earlier work
H526 tumors = assay: In vivo xenograft, human lung (SCLC) H526; conditions: iv weekly, 32 and ET-736 0.5 mg/Kg
Lewis lung carcinoma = conditions: cited from earlier work

COc1c(C)cc2c(c1O)[C@@H]1[C@@H]3[C@@H]4SC[C@]5(NCCc6c5[nH]c5ccccc65)C(=O)OC[C@@H](c5c6c(c(C)c(OC(C)=O)c54)OCO6)N3[C@@H](O)[C@H](C2)N1C [ET-736, Ecteinascidin 736]
Median Tumor Volume (A2780 tumors; Day 0): 168.8 mm^3
Median Tumor Volume (A2780 tumors; Day 2): 251.2 mm^3
Median Tumor Volume (A2780 tumors; Day 5): 382.6 mm^3
Median Tumor Volume (A2780 tumors; Day 7): 676.1 mm^3
Median Tumor Volume (A2780 tumors; Day 9): 959.4 mm^3
Median Tumor Volume (A2780 tumors; Day 12): 1241.5 mm^3
Median Tumor Volume (A2780 tumors; Day 14): 1582.7 mm^3
Median Tumor Volume (A2780 tumors; Day 16): 1646.4 mm^3
Median Tumor Volume (A2780 tumors; Day 19): 1845.5 mm^3
Median Tumor Volume (A2780 tumors; Day 21): 2025.0 mm^3
protection of mice in vivo (B16 melanoma): protects mice in vivo at very low concentrations
Total diameter (tumor + leg) (HT1080 tumors; Table 60, Day 2): 8.3 mm
Total diameter (tumor + leg) (HT1080 tumors; Table 60, Day 5): 7.1 mm
Total diameter (tumor + leg) (HT1080 tumors; Table 60, Day 7): 7.6 mm
Total diameter (tumor + leg) (HT1080 tumors; Table 60, Day 9): 7.4 mm
Total diameter (tumor + leg) (HT1080 tumors; Table 60, Day 12): 7.0 mm
Total diameter (tumor + leg) (HT1080 tumors; Table 60, Day 14): 7.1 mm
Total diameter (tumor + leg) (HT1080 tumors; Table 60, Day 16): 7.4 mm
Total diameter (tumor + leg) (HT1080 tumors; Table 60, Day 19): 8.4 mm
Total diameter (tumor + leg) (HT1080 tumors; Table 60, Day 21): 8.6 mm
Total diameter (tumor + leg) (HT1080 tumors; Table 60, Day 23): 10.0 mm
Total diameter (tumor + leg) (HT1080 tumors; Table 60, Day 27): 10.9 mm
Total diameter (tumor + leg) (HT1080 tumors; Table 60, Day 30): 13.2 mm
Total diameter (tumor + leg) (HT1080 tumors; Table 60, Day 33): 14.3 mm
Total diameter (tumor + leg) (HT1080 tumors; Table 60, Day 35): 15.2 mm
Total diameter (tumor + leg) (HT1080 tumors; Table 60, Day 37): 15.8 mm
Total diameter (tumor + leg) (HT1080 tumors; Table 60, Day 40): 16.6 mm
Total diameter (tumor + leg) (HT1080 tumors; Table 60, Day 42): 18.0 mm
protection of mice in vivo (P388 lymphoma): protects mice in vivo at very low concentrations
Median Tumor Volume (H526 tumors; Table 63, Day 0): 213.5 mm^3
Median Tumor Volume (H526 tumors; Table 63, Day 2): 240.5 mm^3
Median Tumor Volume (H526 tumors; Table 63, Day 4): 97.2 mm^3
Median Tumor Volume (H526 tumors; Table 63, Day 7): 48.8 mm^3
Median Tumor Volume (H526 tumors; Table 63, Day 9): 62.5 mm^3
Median Tumor Volume (H526 tumors; Table 63, Day 11): 62.5 mm^3
Median Tumor Volume (H526 tumors; Table 63, Day 14): 47.3 mm^3
Median Tumor Volume (H526 tumors; Table 63, Day 16): 32.0 mm^3
Median Tumor Volume (H526 tumors; Table 63, Day 21): 4.0 mm^3
Median Tumor Volume (H526 tumors; Table 63, Day 28): 4.0 mm^3
Median Tumor Volume (H526 tumors; Table 63, Day 35): 4.0 mm^3
Median Tumor Volume (H526 tumors; Table 63, Day 42): 4.0 mm^3
Median Tumor Volume (H526 tumors; Table 63, Day 49): 4.0 mm^3
Median Tumor Volume (H526 tumors; Table 63, Day 56): 4.0 mm^3
Median Tumor Volume (H526 tumors; Table 63, Day 63): 4.0 mm^3
Median Tumor Volume (H526 tumors; Table 63, Day 70): 4.0 mm^3
Median Tumor Volume (H526 tumors; Table 63, Day 77): 4.0 mm^3
Median Tumor Volume (H526 tumors; Table 63, Day 84): 199.8 mm^3
Median Tumor Volume (H526 tumors; Table 63, Day 91): 786.5 mm^3
protection of mice in vivo (Lewis lung carcinoma): protects mice in vivo at very low concentrations
